In patent US20120065205A1, “PYRAZINE CARBOXAMIDE OREXIN RECEPTOR ANTAGONISTS” (priority 2009, published 2012):

Molecular target: T1, OX2R (Homo sapiens, UniProt O43614)
T1 construct: expressed in transfected cells; host or cells: CHO cells (membranes)
T1 sequence (O43614 1-444): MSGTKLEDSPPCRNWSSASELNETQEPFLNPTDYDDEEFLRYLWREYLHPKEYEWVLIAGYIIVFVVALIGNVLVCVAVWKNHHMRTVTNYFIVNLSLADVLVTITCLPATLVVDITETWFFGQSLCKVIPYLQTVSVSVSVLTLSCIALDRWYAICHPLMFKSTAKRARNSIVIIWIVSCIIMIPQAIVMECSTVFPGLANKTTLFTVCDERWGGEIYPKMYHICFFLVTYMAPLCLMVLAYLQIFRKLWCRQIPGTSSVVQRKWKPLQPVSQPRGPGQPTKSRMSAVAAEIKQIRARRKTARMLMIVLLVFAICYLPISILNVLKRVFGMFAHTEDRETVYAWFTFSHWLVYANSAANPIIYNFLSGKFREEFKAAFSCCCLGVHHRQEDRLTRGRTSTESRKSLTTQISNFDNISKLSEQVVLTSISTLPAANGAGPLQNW
Experiment: radioligand binding assay, membranes from CHO cells expressing OX2 receptor
Conditions: CHO cell membranes
Procedure: The utility of the compounds in accordance with the present invention as orexin receptor OX1R and/or OX2R antagonists may be readily determined without undue experimentation by methodology well known in the art, including the “FLIPR Ca^2+ Flux Assay” (Okumura et al., Biochem. Biophys. Res. Comm. 280:976-981, 2001). In a typical experiment the OX1 and OX2 receptor antagonistic activity of the compounds of the present invention was determined in accordance with the following experimental method. For intracellular calcium measurements, Chinese hamster ovary (CHO) cells expressing the rat orexin-1 receptor or the human orexin-2 receptor, are grown in Iscove's modified DMEM containing 2 mM L-glutamine, […], 1% hypoxanthine-thymidine supplement, 100 U/ml penicillin, 100 ug/ml streptomycin and 10% heat-inactivated fetal calf serum (FCS). The cells are seeded at 20,000 cells/well into Becton-Dickinson black 384-well clear bottom sterile plates coated with poly-D-lysine. All reagents were from GIBCO-Invitrogen Corp. The seeded plates are incubated overnight at 37° C. and 5% CO2. […] Within the Fluorescent Imaging Plate Reader (FLIPR, Molecular Devices), test compounds are added to the plate in a volume of 25 ul, incubated for 5 min and finally 25 ul of agonist is added. Fluorescence is measured for each well at 1 second intervals for 5 minutes and the height of each fluorescence peak is compared to the height of the fluorescence peak induced by 70 pM Ala-6,12 orexin-A with buffer in place of antagonist. […] Alternatively, compound potency can be assessed by a radioligand binding assay (described in Bergman et. al. Bioorg. Med. Chem. Lett. 2008, 18, 1425-1430) in which the inhibition constant (Ki) is determined in membranes prepared from CHO cells expressing either the OX1 or OX2 receptor. The intrinsic orexin receptor antagonist activity of a compound which may be used in the present invention may be determined by these assays.

Ki [nM] | Compound
3.9 | COc1ccc(CNC(=O)c2nc(-c3cncc(Cl)c3)cnc2-c2ccccc2F)nc1OC [1-9, 6-(5-chloropyridin-3-yl)-N-[(5,6-dimethoxypyridin-2-yl)methyl]-3-(2-fluorophenyl)pyrazine-2-carboxamide]
33 | COc1ccc(CNC(=O)c2nc(-c3cc(C)cc(C)c3)cnc2N2CCOCC2)nc1OC [2-5, N-[(5,6-dimethoxypyridin-2-yl)methyl]-6-(3,5-dimethylphenyl)-3-(morpholin-4-yl)pyrazine-2-carboxamide]
1.4 | COc1ccc(CNC(=O)c2nc(-c3cncc(C)c3)cnc2-c2ccccc2)nc1OC [1-5, N-[(5,6-dimethoxypyridin-2-yl)methyl]-6-(5-methylpyridin-3-yl)-3-phenylpyrazine-2-carboxamide]
